Laboratory results as given in PubChem BioAssay AID2060624 (Molecular Pharmacology Branch, DTP, NCI, 2025).

Test system: 217524-143-R1-J4-PDC spheroids with HUVEC/MSC, viability
Assay: Anticancer human tumor 217524-143-R1-J4-PDC patient-derived pancreatic carcinoma cell line growth inhibition [CLK]
Conditions: for IC50: curve of first compound; for viability, T/C: stronger effect = lower value; active means viability on the fitted dose curve at most 10% of control; inactive means the rest
Procedure, shortened: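 Multi-cell-type spheroids combined patient-derived tumor cells with HUVEC endothelial cells and human mesenchymal stem cells. Paired agents were dosed in half-log steps down from about clinical Cmax, or from 10 microM where Cmax was unknown.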

[1] = second compound 0.0316 µM, first compound 0.0316 µM
[2] = second compound 0.0316 µM, first compound 0.1 µM
[3] = second compound 0.0316 µM, first compound 0.316 µM
[4] = second compound 0.0316 µM, first compound 1 µM
[5] = second compound 0.0316 µM, first compound 3.16 µM
[6] = second compound 0.0316 µM, first compound 10 µM
[7] = second compound 0.1 µM, first compound 0.0316 µM
[8] = second compound 0.1 µM, first compound 0.1 µM
[9] = second compound 0.1 µM, first compound 0.316 µM
[10] = second compound 0.1 µM, first compound 1 µM
[11] = second compound 0.1 µM, first compound 3.16 µM
[12] = second compound 0.1 µM, first compound 10 µM
[13] = second compound 0.316 µM, first compound 0.0316 µM
[14] = second compound 0.316 µM, first compound 0.1 µM
[15] = second compound 0.316 µM, first compound 0.316 µM
[16] = second compound 0.316 µM, first compound 1 µM
[17] = second compound 0.316 µM, first compound 3.16 µM
[18] = second compound 0.316 µM, first compound 10 µM
[19] = second compound 1 µM, first compound 0.0316 µM
[20] = second compound 1 µM, first compound 0.1 µM
[21] = second compound 1 µM, first compound 0.316 µM
[22] = second compound 1 µM, first compound 1 µM
[23] = second compound 1 µM, first compound 3.16 µM
[24] = second compound 1 µM, first compound 10 µM
[25] = second compound 3.16 µM, first compound 0.0316 µM
[26] = second compound 3.16 µM, first compound 0.1 µM
[27] = second compound 3.16 µM, first compound 0.316 µM
[28] = second compound 3.16 µM, first compound 1 µM
[29] = second compound 3.16 µM, first compound 3.16 µM
[30] = second compound 3.16 µM, first compound 10 µM
[31] = second compound 10 µM, first compound 0.0316 µM
[32] = second compound 10 µM, first compound 0.1 µM
[33] = second compound 10 µM, first compound 0.316 µM
[34] = second compound 10 µM, first compound 1 µM
[35] = second compound 10 µM, first compound 3.16 µM
[36] = second compound 10 µM, first compound 10 µM
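Further: spheroids exposed to agents for seven days before reading.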
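Wherever viability, T/C is given: 100% = DMSO vehicle control viability.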

CC1(C)CCC(CN2CCN(c3ccc(C(=O)NS(=O)(=O)c4ccc(NCC5CCOCC5)c([N+](=O)[O-])c4)c(Oc4cnc5[nH]ccc5c4)c3)CC2)=C(c2ccc(Cl)cc2)C1 + CNC(=O)c1ccc(Nc2nc(OC3CCCC3)c3c(-c4ccc5nc(C)oc5c4)c[nH]c3n2)c(OC)c1
< 31.6 nM: IC50 (second compound 0.1 µM) | IC50 (second compound 0.316 µM) | IC50 (second compound 1 µM) | IC50 (second compound 3.16 µM) | IC50 (second compound 10 µM)
> 10000 nM: IC50 (second compound 0.0316 µM)
inactive: viability, T/C [1] 86.2% | viability, T/C [2] 87.7% | viability, T/C [3] 81.2% | viability, T/C [4] 79% | viability, T/C [5] 88.5% | viability, T/C [6] 79.3% | viability, T/C [7] 42.1% | viability, T/C [8] 45% | viability, T/C [9] 38.1% | viability, T/C [10] 46.1% | viability, T/C [11] 39.1% | viability, T/C [12] 37.7% | viability, T/C [13] 34.1% | viability, T/C [14] 40.7% | viability, T/C [15] 38.7% | viability, T/C [16] 38.2% | viability, T/C [17] 36.9% | viability, T/C [18] 37.1% | viability, T/C [19] 24.4% | viability, T/C [20] 29.3% | viability, T/C [21] 31.6% | viability, T/C [22] 27.4% | viability, T/C [23] 31.4% | viability, T/C [24] 25.9% | viability, T/C [25] 27.4% | viability, T/C [26] 28.9% | viability, T/C [27] 24.1% | viability, T/C [28] 27.2% | viability, T/C [29] 29.1% | viability, T/C [30] 22.3% | viability, T/C [31] 23.1% | viability, T/C [32] 25.7% | viability, T/C [33] 24.9% | viability, T/C [34] 26.4% | viability, T/C [35] 26.7% | viability, T/C [36] 24.9%

NC(=O)C(=Cn1cnc(-c2cc(C(F)(F)F)cc(C(F)(F)F)c2)n1)c1cncnc1 + CNC(=O)c1ccc(Nc2nc(OC3CCCC3)c3c(-c4ccc5nc(C)oc5c4)c[nH]c3n2)c(OC)c1
< 9.49 nM: IC50 (second compound 0.1 µM) | IC50 (second compound 0.316 µM) | IC50 (second compound 1 µM) | IC50 (second compound 3.16 µM) | IC50 (second compound 10 µM)
active: viability, T/C (second compound 3.16 µM, first compound 0.3 µM) 8.7% | viability, T/C (second compound 3.16 µM, first compound 0.949 µM) 6.96% | viability, T/C (second compound 3.16 µM, first compound 3 µM) 6.45% | viability, T/C (second compound 10 µM, first compound 0.0949 µM) 9.72% | viability, T/C (second compound 10 µM, first compound 0.3 µM) 7.3% | viability, T/C (second compound 10 µM, first compound 0.949 µM) 6.09% | viability, T/C (second compound 10 µM, first compound 3 µM) 5.49%
inactive: viability, T/C (second compound 0.0316 µM, first compound 0.00949 µM) 60.5% | viability, T/C (second compound 0.0316 µM, first compound 0.03 µM) 38.8% | viability, T/C (second compound 0.0316 µM, first compound 0.0949 µM) 22.9% | viability, T/C (second compound 0.0316 µM, first compound 0.3 µM) 25.2% | viability, T/C (second compound 0.0316 µM, first compound 0.949 µM) 26.6% | viability, T/C (second compound 0.0316 µM, first compound 3 µM) 20.1% | viability, T/C (second compound 0.1 µM, first compound 0.00949 µM) 29.9% | viability, T/C (second compound 0.1 µM, first compound 0.03 µM) 28.1% | viability, T/C (second compound 0.1 µM, first compound 0.0949 µM) 21% | viability, T/C (second compound 0.1 µM, first compound 0.3 µM) 24.4% | viability, T/C (second compound 0.1 µM, first compound 0.949 µM) 23% | viability, T/C (second compound 0.1 µM, first compound 3 µM) 18.7% | viability, T/C (second compound 0.316 µM, first compound 0.00949 µM) 23.2% | viability, T/C (second compound 0.316 µM, first compound 0.03 µM) 18.9% | viability, T/C (second compound 0.316 µM, first compound 0.0949 µM) 16.9% | viability, T/C (second compound 0.316 µM, first compound 0.3 µM) 17.7% | viability, T/C (second compound 0.316 µM, first compound 0.949 µM) 18.9% | viability, T/C (second compound 0.316 µM, first compound 3 µM) 13.2% | viability, T/C (second compound 1 µM, first compound 0.00949 µM) 18.8% | viability, T/C (second compound 1 µM, first compound 0.03 µM) 12.9% | viability, T/C (second compound 1 µM, first compound 0.0949 µM) 11.7% | viability, T/C (second compound 1 µM, first compound 0.3 µM) 11.5% | viability, T/C (second compound 1 µM, first compound 0.949 µM) 10.9% | viability, T/C (second compound 1 µM, first compound 3 µM) 8.56% | viability, T/C (second compound 3.16 µM, first compound 0.00949 µM) 14.1% | viability, T/C (second compound 3.16 µM, first compound 0.03 µM) 12.6% | viability, T/C (second compound 3.16 µM, first compound 0.0949 µM) 9.81% | viability, T/C (second compound 10 µM, first compound 0.00949 µM) 14.2% | viability, T/C (second compound 10 µM, first compound 0.03 µM) 12%
16.6 nM: IC50 (second compound 0.0316 µM)

Nc1ccccc1NC(=O)c1ccc(CNC(=O)OCc2cccnc2)cc1 + CNC(=O)c1ccc(Nc2nc(OC3CCCC3)c3c(-c4ccc5nc(C)oc5c4)c[nH]c3n2)c(OC)c1
4960 nM: IC50 (second compound 0.0316 µM)
3850 nM: IC50 (second compound 0.1 µM)
< 31.6 nM: IC50 (second compound 0.316 µM) | IC50 (second compound 1 µM) | IC50 (second compound 3.16 µM) | IC50 (second compound 10 µM)
inactive: viability, T/C [1] 109% | viability, T/C [2] 99% | viability, T/C [3] 97.3% | viability, T/C [4] 87.7% | viability, T/C [5] 59.2% | viability, T/C [6] 34% | viability, T/C [7] 50.3% | viability, T/C [8] 50.2% | viability, T/C [9] 57.3% | viability, T/C [10] 62.1% | viability, T/C [11] 53% | viability, T/C [12] 32% | viability, T/C [13] 37.9% | viability, T/C [14] 43% | viability, T/C [15] 47.8% | viability, T/C [16] 60.5% | viability, T/C [17] 53.2% | viability, T/C [18] 29.9% | viability, T/C [19] 35.8% | viability, T/C [20] 35.9% | viability, T/C [21] 49.5% | viability, T/C [22] 46.2% | viability, T/C [23] 38.4% | viability, T/C [24] 22.3% | viability, T/C [25] 33.1% | viability, T/C [26] 30.3% | viability, T/C [27] 34.6% | viability, T/C [28] 45% | viability, T/C [29] 40.3% | viability, T/C [30] 19.3% | viability, T/C [31] 30.4% | viability, T/C [32] 25.9% | viability, T/C [33] 39.4% | viability, T/C [34] 38.6% | viability, T/C [35] 37.4% | viability, T/C [36] 13.3%
